Values quoted from earlier work, collected in US6491840B1, “Polymer compositions having specified PH for improved dispensing and improved stability of wrinkle reducing compositions and methods of use” (The Procter & Gamble Company, priority 2000, dated 2002).

## ClC=CC[N+]12CN3CN(CN(C3)C1)C2.[Cl-] [Dowicil 200, 1-(3-Chlorallyl)-3,5,7-triaza-1-azoniaadamantane chloride]
  solubility in water: freely soluble in water
